Results taken from BindingDB's records for patent US10561657 (Centaurus Biophrama, 2020).

Biological target: Tyrosine-protein kinase JAK2 (Homo sapiens, UniProt O60674)
Assay: Enzymatic Activity Assay
Protocol: A testing platform for kinase activity of JAK2 (wild type and V617F mutant type) was established based on Homogeneous Time-Resolved Fluorescence (HTRF) assay, and the activities of the compounds were tested using the platform. The compounds were subjected to three-fold gradient dilutions with 100% DMSO with a starting concentration of 1 mM (11 dilutions in total). 4 μL of each dilution was added to 96 μL of reaction buffer (50 mM HEPES, pH 7.4, 10 mM MgCl2, 1 mM EGTA, 0.01% Tween-20, 0.005% BAS, 2 mM DTT) and mixed homogeneously. […] The mixture was mixed homogeneously by centrifugation. […] The plate was incubated in the incubator for 1 hr, and then the fluorescence values were read on Envision (available from PerkinElmer). […] The enzymatic activity was representd by a ratio of the two readout at the two emission wavelengths.

Chain of Tyrosine-protein kinase JAK2 (O60674 whole entry): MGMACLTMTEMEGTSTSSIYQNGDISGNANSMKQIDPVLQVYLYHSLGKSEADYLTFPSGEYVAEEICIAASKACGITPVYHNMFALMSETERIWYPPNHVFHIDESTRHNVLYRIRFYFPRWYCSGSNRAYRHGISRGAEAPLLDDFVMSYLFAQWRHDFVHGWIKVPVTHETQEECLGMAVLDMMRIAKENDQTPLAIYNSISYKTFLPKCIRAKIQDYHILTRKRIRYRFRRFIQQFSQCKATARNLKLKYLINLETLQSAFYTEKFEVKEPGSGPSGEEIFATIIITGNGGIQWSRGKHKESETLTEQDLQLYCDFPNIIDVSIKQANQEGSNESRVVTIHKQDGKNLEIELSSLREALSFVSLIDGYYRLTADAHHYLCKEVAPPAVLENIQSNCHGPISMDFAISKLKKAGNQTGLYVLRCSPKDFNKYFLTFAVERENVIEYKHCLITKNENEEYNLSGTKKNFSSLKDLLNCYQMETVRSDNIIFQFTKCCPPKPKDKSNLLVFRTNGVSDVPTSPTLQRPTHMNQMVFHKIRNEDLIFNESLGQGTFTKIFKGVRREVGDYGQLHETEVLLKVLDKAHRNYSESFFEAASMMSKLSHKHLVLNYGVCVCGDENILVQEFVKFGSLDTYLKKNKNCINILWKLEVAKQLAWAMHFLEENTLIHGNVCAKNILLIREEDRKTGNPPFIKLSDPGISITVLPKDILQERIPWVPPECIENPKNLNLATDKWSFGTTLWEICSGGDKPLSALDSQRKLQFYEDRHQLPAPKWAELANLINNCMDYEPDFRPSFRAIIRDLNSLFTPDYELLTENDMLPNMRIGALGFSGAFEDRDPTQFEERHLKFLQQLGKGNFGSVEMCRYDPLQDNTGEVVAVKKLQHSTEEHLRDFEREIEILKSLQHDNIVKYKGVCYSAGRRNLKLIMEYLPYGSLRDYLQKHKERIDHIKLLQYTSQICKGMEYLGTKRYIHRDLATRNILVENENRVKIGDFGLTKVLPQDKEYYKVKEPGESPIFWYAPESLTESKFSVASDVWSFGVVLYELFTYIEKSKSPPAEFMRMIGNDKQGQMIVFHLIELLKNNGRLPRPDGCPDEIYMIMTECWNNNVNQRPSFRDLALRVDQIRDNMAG

| IC50 | SMILES |
| --- | --- |
| < 20 nM | CS(=O)(=O)Nc1nn(C(CC#N)C2CCCC2)cc1-c1ncnc2[nH]ccc12 (configuration not stated) [US10561657, Example 10] |
| < 100 nM | NC(=O)CC(C1CCCC1)n1cc(-c2ncnc3[nH]ccc23)c(N)n1 (configuration not stated) [US10561657, Example 2] |
